In US11701364B2, “Agonists of stimulator of interferon genes sting” (The Scripps Research Institute, priority 2018, dated 2023):
pEC50: −log10 of the molar value.

Molecular target: T1, STING (Stimulator of Interferon Genes) (Homo sapiens, UniProt Q86WV6, G230A/H232R/R293Q/R71H)
T1 construct: host or cells: THP-1-Lucia ISG cells (human monocytic line)
Experiment: ISG-LUC activation assay (ISRE-Luciferase assay in THP-1 Lucia ISG reporter cells)
Format: cell-based
Conditions: THP-1 Lucia ISG cells, 24 hours, luciferase reporter; read-out: ISG-LUC activation assay (EC50)
Excerpt: This has been established using a primary assay involving a human THP-1 cell line carrying an IRF-inducible reporter with 5 copies of the IFN signaling response element. Counter screens, involving alternative reporter constructs, rodent cell-based assays, as well as cGAS and STING knock-out cell lines, are used to eliminate luciferase artifacts and ensure human-rodent cross species reactivity, as well as pathway selectivity. Biochemical assays, involving cGAS enzymatic activity and STING protein binding assays, are used to identify the specific target of identified hits.
THP-1 Lucia ISG cells were resuspended in low-serum growth media (2% FBS) at a density of 5×10^5 cells/ml and treated with test article or vehicle (DMSO). 50 μL of cells were seeded into each well of a 384-well white greiner plates and incubated for 24 hours. To evaluate expression of the luciferase reporter, 30 μl of Quanti-luc (Invivogen) detection reagent was added to each well and luminescence was read using an Envision plate reader (Perkin Elmer) set with an integration time of 0.1 seconds.

T1 sequence (Q86WV6 whole entry R71H/G230A/H232R/R293Q): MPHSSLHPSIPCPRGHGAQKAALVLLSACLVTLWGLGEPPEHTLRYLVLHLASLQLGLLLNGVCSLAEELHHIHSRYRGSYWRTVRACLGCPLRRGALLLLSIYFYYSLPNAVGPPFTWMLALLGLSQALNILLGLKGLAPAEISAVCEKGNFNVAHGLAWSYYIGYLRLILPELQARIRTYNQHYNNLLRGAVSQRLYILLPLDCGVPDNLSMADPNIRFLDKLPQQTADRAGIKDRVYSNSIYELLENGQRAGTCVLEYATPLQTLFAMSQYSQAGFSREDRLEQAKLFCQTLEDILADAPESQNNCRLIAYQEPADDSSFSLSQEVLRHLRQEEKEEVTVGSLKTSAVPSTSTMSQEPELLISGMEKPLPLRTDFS

| Compound | pEC50 |
| --- | --- |
| O=C(Nc1ccc(Cl)cc1C(=O)O)c1ccc(-n2ccnc2)nn1 [Compound 83] | < 4.70 |
| COC(=O)c1c(F)c(F)c(F)c(F)c1NC(=O)c1ccc(-n2ccnc2)nn1 [Compound 176] | ~5.60 |
| COC(=O)c1nn(C)cc1NC(=O)c1ccc(-n2ccnc2)nn1 [Compound 119] | 5.23 |
| COC(=O)c1cccc(Cl)c1NC(=O)c1ccc(-n2ccnc2)nn1 [Compound 96] | 4.68 |
| O=c1oc(-c2ccc(-n3ccnc3)nn2)nc2ccc(OC(F)(F)F)cc12 [Compound 41] | 6.75 |
| COC(=O)c1ccc(F)c(F)c1NC(=O)c1ccc(-n2ccnc2)nn1 [Compound 18] | 6.25 |
| COc1ccc2nc(-c3ccc(-n4ccnc4)nn3)oc(=O)c2c1 [Compound 40] | 6.16 |
| Cc1cc(NC(=O)c2ccc(-n3ccnc3)nn2)c(C(=O)O)cc1C [Compound 111] | 5.14 |
| O=C(Nc1cc(C2CC2)c(F)cc1C(=O)O)c1ccc(-n2ccnc2)nn1 [Compound 174] | 5.00 |
| O=C(Nc1ccc2ccccc2c1C(O)(C(F)(F)F)C(F)(F)F)c1ccc(-n2ccnc2)nn1 [Compound 121] | 5.74 |
| COC(=O)c1cc(F)c(C)cc1NC(=O)c1ccc(-n2ccnc2)nn1 [Compound 21] | 7.04 |
| O=C(Nc1cc(F)c(OC(F)F)cc1C(=O)O)c1ccc(-n2ccnc2)nn1 [Compound 84] | 5.07 |
| O=C(Nc1ccc(F)c(F)c1C(=O)O)c1ccc(-n2ccnc2)nn1 [Compound 173] | < 4.70 |
| COC(=O)c1c(Cl)cc(F)cc1NC(=O)c1ccc(-n2ccnc2)nn1 [Compound 100] | 4.99 |
| NC(=O)c1cc(F)c(F)cc1NC(=O)c1ccc(-n2ccnc2)nn1 [Compound 63] | 5.58 |
| COC(=O)c1nc(OC)cnc1NC(=O)c1ccc(-n2ccnc2)nn1 [Compound 166] | 4.92 |
| CCOC(=O)C1=C(NC(=O)c2ccc(-n3ccnc3)nn2)C[C@@H](C)O[C@H]1C [Compound 135] | 4.91 |
| COC(=O)c1ccc(F)cc1NC(=O)c1ccc(-n2ccnc2)nn1 [Compound 16] | 6.16 |
| COC(=O)c1cc(Cl)cc(C)c1NC(=O)c1ccc(-n2ccnc2)nn1 [Compound 97] | ~5.60 |
| COC(=O)c1cc(F)cc(C)c1NC(=O)c1ccc(-n2ccnc2)nn1 [Compound 175] | ~5.55 |
| COC(=O)c1cccc(F)c1NC(=O)c1ccc(-n2ccnc2)nn1 [Compound 156] | < 4.30 |

| Compound | pEC50 |
| --- | --- |
| NC(=O)c1cc(Cl)c(Cl)cc1NC(=O)c1ccc(-n2ccnc2)nn1 [Compound 138] | < 4.30 |
| COc1ccc(C(=O)O)c(NC(=O)c2ccc(-n3ccnc3)nn2)c1 [Compound 62] | 5.84 |
| COC(=O)c1cc(F)c(F)cc1NC(=O)c1ccc(-n2ccnc2)nn1 [Compound 107] | 6.38 |
| COC(=O)c1cnccc1NC(=O)c1ccc(-n2ccnc2)nn1 [Compound 108] | 5.48 |
| COC(=O)c1cc(F)cc(F)c1NC(=O)c1ccc(-n2ccnc2)nn1 [Compound 19] | 6.09 |
| CC(C)OC(=O)c1cc(F)c(F)cc1NC(=O)c1ccc(-n2ccnc2)nn1 [Compound 24] | 6.13 |
| Cc1ccc2nc(-c3ccc(-n4ccnc4)nn3)oc(=O)c2n1 [Compound 137] | 5.03 |
| COC(=O)c1cc2cnn(C)c2cc1NC(=O)c1ccc(-n2ccnc2)nn1 [Compound 45] | 6.90 |
| O=C(Nc1ccccc1C(=O)OC1CCC1)c1ccc(-n2ccnc2)nn1 [Compound 4] | 5.68 |
| O=C(Nc1cc2ccccc2nc1C(=O)O)c1ccc(-n2ccnc2)nn1 [Compound 154] | ~4.98 |
| COC(=O)c1c(F)cc(F)cc1NC(=O)c1ccc(-n2ccnc2)nn1 [Compound 51] | 6.70 |
| COC(=O)c1ncc(C(F)(F)F)cc1NC(=O)c1ccc(-n2ccnc2)nn1 [Compound 152] | ~5.90 |
| COC(=O)c1cc(F)c(C2CC2)cc1NC(=O)c1ccc(-n2ccnc2)nn1 [Compound 56] | 6.52 |
| O=C(Nc1cc(F)ccc1C(=O)O)c1ccc(-n2ccnc2)nn1 [Compound 169] | 4.90 |
| O=C(Nc1cc(F)c(F)cc1C(=O)NC1CCC(O)(C(F)(F)F)CC1)c1ccc(-n2ccnc2)nn1 (stereo not shown) [Compound 87] | < 4.70 |
| Nc1cc(F)c(F)cc1NC(=O)c1ccc(-n2ccnc2)nn1 [Compound 144] | < 4.30 |
| Cn1ncc2cc(C(=O)O)c(NC(=O)c3ccc(-n4ccnc4)nn3)cc21 [Compound 167] | 4.83 |
| O=C(Nc1ccc(F)cc1C(=O)O)c1ccc(-n2ccnc2)nn1 [Compound 158] | < 4.70 |
| O=c1oc(-c2ccc(-n3ccnc3)nn2)nc2cc3c(cc12)OC(F)(F)O3 [Compound 141] | < 4.30 |
| N#Cc1ccc2c(=O)oc(-c3ccc(-n4ccnc4)nn3)nc2c1 [Compound 37] | 6.78 |
| COC(=O)c1cc(C(C)C)ccc1NC(=O)c1ccc(-n2ccnc2)nn1 [Compound 160] | 5.42 |

| Compound | pEC50 |
| --- | --- |
| COC(=O)C1=C(NC(=O)c2ccc(-n3ccnc3)nn2)CC(C)(C)OC1 [Compound 136] | 5.05 |
| CCOC(=O)c1c(F)cc(F)c(F)c1NC(=O)c1ccc(-n2ccnc2)nn1 [Compound 148] | 5.43 |
| COC(=O)c1cc(OC)c(F)cc1NC(=O)c1ccc(-n2ccnc2)nn1 [Compound 28] | 7.02 |
| COC(=O)c1cc(C#N)cc(F)c1NC(=O)c1ccc(-n2ccnc2)nn1 [Compound 73] | 5.63 |
| O=C(Nc1cc(Cl)c(F)cc1C(=O)O)c1ccc(-n2ccnc2)nn1 [Compound 53] | ~6.20 |
| O=C(Nc1ccccc1C(O)(C(F)(F)F)C(F)(F)F)c1ccc(-n2ccnc2)nn1 [Compound 1] | 6.23 |
| COC(=O)c1c(F)ccc(Cl)c1NC(=O)c1ccc(-n2ccnc2)nn1 [Compound 99] | 4.92 |
| COC(=O)c1ccccc1NC(=O)c1ccc(-n2cnc(C)c2)nn1 [Compound 93] | < 4.70 |
| O=C(Nc1cc(Cl)nnc1C(=O)O)c1ccc(-n2ccnc2)nn1 [Compound 157] | < 4.30 |
| COC(=O)c1cc(C)c(Cl)cc1NC(=O)c1ccc(-n2ccnc2)nn1 [Compound 61] | 6.91 |
| O=C(Nc1cc(F)c(F)cc1C(=O)NCCO)c1ccc(-n2ccnc2)nn1 [Compound 122] | 5.10 |
| COC(=O)c1cc(C#N)ccc1NC(=O)c1ccc(-n2ccnc2)nn1 [Compound 49] | 6.23 |
| COC(=O)c1ccccc1NC(=O)c1ccc(-n2ccnc2)nn1 [Compound 162] | 6.02 |
| CCOC(=O)c1nc2ccccc2cc1NC(=O)c1ccc(-n2ccnc2)nn1 [Compound 153] | 7.37 |
| O=c1oc(-c2ccc(-n3ccnc3)nn2)nc2c1COCC2 [Compound 168] | 4.95 |
| CCN(CC)CCOC(=O)c1cc(F)c(F)cc1NC(=O)c1ccc(-n2ccnc2)nn1 [Compound 68] | 5.74 |
| O=c1oc(-c2ccc(-n3ccnc3)nn2)nc2cc(Cl)c(Cl)cc12 [Compound 35] | 7.21 |
| COC(=O)c1cc(C(F)(F)F)ccc1NC(=O)c1ccc(-n2ccnc2)nn1 [Compound 26] | 6.94 |
| O=c1oc(-c2ccc(-n3ccnc3)nn2)nc2cc(F)c(F)cc12 [Compound 29] | 6.85 |
| COC(=O)c1cc(C(F)(F)F)cc(F)c1NC(=O)c1ccc(-n2ccnc2)nn1 [Compound 48] | 6.32 |
| Cc1cc(NC(=O)c2ccc(-n3ccnc3)nn2)c(C(=O)OCCCCO)cc1C [Compound 46] | 6.38 |

| Compound | pEC50 |
| --- | --- |
| COC(=O)C1=C(NC(=O)c2ccc(-n3ccnc3)nn2)CC(C)(C)C1 [Compound 77] | < 4.30 |
| COC(=O)c1cc(NC(=O)c2ccc(-n3ccnc3)nn2)cc(F)c1F [Compound 10] | 6.33 |
| COC(=O)c1ccc(F)c(C)c1NC(=O)c1ccc(-n2ccnc2)nn1 [Compound 2] | 5.33 |
| CCc1ccc(NC(=O)c2ccc(-n3ccnc3)nn2)c(C(=O)OC(C)C)c1 [Compound 65] | 5.94 |
| COC(=O)c1cc(C)c(C)cc1NC(=O)c1ccc(-n2ccnc2)nn1 [Compound 11] | 6.99 |
| COc1ccc(NC(=O)c2ccc(-n3ccnc3)nn2)c(C(=O)O)c1 [Compound 151] | 5.11 |
| COC(=O)c1cc(F)c(OC)c(F)c1NC(=O)c1ccc(-n2ccnc2)nn1 [Compound 59] | 6.11 |
| Cc1c(F)ccc2nc(-c3ccc(-n4ccnc4)nn3)oc(=O)c12 [Compound 133] | 5.38 |
| COC(=O)c1cc(OC(F)(F)F)ccc1NC(=O)c1ccc(-n2ccnc2)nn1 [Compound 76] | 6.24 |
| Cc1cc(NC(=O)c2ccc(-n3ccnc3)nn2)c(C(=O)O)cc1F [Compound 81] | 5.56 |
| Cc1ccc(C(=O)O)c(NC(=O)c2ccc(-n3ccnc3)nn2)c1 [Compound 82] | 5.19 |
| COC(=O)c1cc(C(F)(F)F)c(F)cc1NC(=O)c1ccc(-n2ccnc2)nn1 [Compound 70] | 5.76 |
| COC(=O)c1ncc(F)cc1NC(=O)c1ccc(-n2ccnc2)nn1 [Compound 69] | 5.56 |
| COC(=O)c1cc(OC(F)(F)F)c(F)cc1NC(=O)c1ccc(-n2ccnc2)nn1 [Compound 44] | 6.24 |
| COC(=O)c1ccc(OC)cc1NC(=O)c1ccc(-n2ccnc2)nn1 [Compound 105] | 6.72 |
| O=C(O)C1=C(NC(=O)c2ccc(-n3ccnc3)nn2)CCCC1 [Compound 130] | 4.83 |
| COC(=O)c1cc2ccccc2cc1NC(=O)c1ccc(-n2ccnc2)nn1 [Compound 23] | 7.25 |
| Cc1cc(C(N)=O)c(NC(=O)c2ccc(-n3ccnc3)nn2)cc1F [Compound 134] | < 4.30 |
| CCOC(=O)C1=C(NC(=O)c2ccc(-n3ccnc3)nn2)CCC1 [Compound 113] | 4.73 |
